Square brackets hold non-standard residues; d marks the D form. Peptide text beside a SMILES is read from it. NMeY = CN[C@@H](Cc1ccc(O)cc1)C(=O)O; NMeF = CN[C@@H](Cc1ccccc1)C(=O)O
Test system: acute pain caused by photothermal therapy in male mice of Kunming strain
Assay: Mouse photothermal tail flick analgesia experiment
Format: in vivo
Conditions: lateral ventricle injection
Protocol: After the drug was injected into the lateral ventricle, intrathecal, subcutaneous, and intraperitoneal, the modulating activity on pain was measured by the photothermal tail flick test in mouse.
In the lateral ventricle administration, the lateral ventricle tube-buried surgery of the mouse should be performed in advance to ensure the accuracy of the drug injection site. A brain stereotaxic instrument was used in the lateral ventricle tube-buried surgery of the mouse. Male mice of Kunming strain, weighing 21±2 g; brain stereotaxic instrument is Jiangwan I. After the mice were anesthetized with sodium pentobarbital (i.p., 80 mg/kg mouse body weight), the hair in the head surgery area of the mouse was cut off and the mouse was placed on the brain stereotactic instrument and fixed. The surgery area was disinfected with iodophor, the scalp was opened along the sagittal suture to reveal the skull and the position of the anterior fontanelle can be found. 3 mm backward and 1 mm left/right from the anterior fontanelle, the upper position of the lateral ventricle can be found. A self-made stainless steel tube (a section of 24-gauge, which is connected to a small section of PE-10 tube) is inserted 3 mm downward according to the above position, which is the lateral ventricle. A section of stainless steel string (28-gauge) is inserted into the above-mentioned steel tube to prevent cerebrospinal fluid spillage and foreign matter infection and block the steel pipe. The steel tube is fixed with medical dental powder and glue, and after solidification, the wound is sutured. After the surgery, the mice were recovered tier 4 days, and the follow-up experiment was started on the 5th day. Surgical instruments, stainless steel tubes, etc. involved in the experiment need to be disinfected before the surgery. The mouse lateral ventricle was injected with 4 μl of the drug each time, and then the steel tube was rinsed with 1 μl of physiological saline.
Spinal cord level administration is performed by intrathecal injection in conscious mice, and the specific procedure is described in the method reported by Hylden and Wilcox (Eur. J. Pharmacol. 1980, 67: 313). A 25 μL microinjector was inserted directly into the subarachnoid space between L5 and L6.
The intraperitoneal administration was directly injected using a 1 mL syringe at an injection volume of 10 μl/g body weight. At the time of injection, the mouse was held by left hand with their abdomen facing up and the head was at low position while the tail was at high position. The side of the midline of the abdomen was taken, the needle hole of the syringe was upward, the needle tip penetrates into the skin in a direction less than 20 degrees, the needle tip was slightly pushed in the direction of the mouse head and sticking abdominal wall, and then punctures into the abdominal cavity in the direction of 45 degrees, and was withdrawn to confirm that it has not been pierced into the blood vessel or the intestine, afterwards the drug solution is slowly pushed out.
Subcutaneous injection was also administered directly using a 1 mL syringe in an injection volume of 10 μl/g body weight. At the time of injection, the neck and tail of the mouse were fixed in the left hand, and the head and body were inclined downward at 45 degrees. The needle hole of the syringe is upward, the needle tip is slowly pierced into the skin on the right side of the back center line at an angle of less than 20 degrees, and the needle tip is lightly picked up to confirm that there is no piercing, afterwards the drug solution is slowly pushed out.
Male mice of Kunming strain were used to detect the effects of drugs on pain perception using a photothermal tail flick instrument. The ambient temperature is controlled at 22±1° C., and the experimental animals are free to eat and drink. The basic tail flick incubation period (3-5 seconds) was determined prior to administration, and mice that were too sensitive or dull were discarded. […]

SMILES | ED50 value (nmol) (95% confidence interval), analgesic activity
CN[C@@H](Cc1ccc(O)cc1)C(=O)N[C@H](C)C(=O)NCC(=O)N[C@@H](Cc1ccccc1)C(=O)N[C@@H](CCC(N)=O)C(=O)N1CCC[C@H]1C(=O)N[C@@H](CCC(N)=O)C(=O)N[C@@H](CCCNC(=N)N)C(=O)N[C@@H](Cc1ccccc1)C(N)=O [Compound 1] (H-[NMeY][dA]GFQPQRF-NH2) | 1.2980 (1.2000 to 1.4050) nmol
C[C@@H](NC(=O)[C@@H](N)Cc1ccc(O)cc1)C(=O)NCC(=O)N(C)[C@@H](Cc1ccccc1)C(=O)N[C@@H](CCC(N)=O)C(=O)N1CCC[C@H]1C(=O)N[C@@H](CCC(N)=O)C(=O)N[C@@H](CCCNC(=N)N)C(=O)N[C@@H](Cc1ccccc1)C(N)=O [Compound 2, Tyr-D-Ala-Gly-NMe-Phe-Gln-Pro-Gln-Arg-Phe-NH2] (H-Y[dA]G[NMeF]QPQRF-NH2) | 0.3862 (0.3590 to 0.4154) nmol
C[C@@H](NC(=O)[C@@H](N)Cc1ccc(O)cc1)C(=O)NCC(=O)N[C@@H](Cc1ccccc1)C(=O)NCC(=O)N1CCC[C@H]1C(=O)N[C@@H](CCC(N)=O)C(=O)N[C@@H](CCCNC(=N)N)C(=O)N[C@@H](Cc1ccccc1)C(N)=O [Compound 3] (H-Y[dA]GFGPQRF-NH2) | 0.4172 (0.3798 to 0.4583) nmol
CC(C)C[C@H](NC(=O)[C@H](Cc1ccccc1)NC(=O)CNC(=O)[C@@H](C)NC(=O)[C@@H](N)Cc1ccc(O)cc1)C(=O)N1CCC[C@H]1C(=O)N[C@@H](CCC(N)=O)C(=O)N[C@@H](CCCNC(=N)N)C(=O)N[C@@H](Cc1ccccc1)C(N)=O [Compound 4] (H-Y[dA]GFLPQRF-NH2) | 0.1865 (0.1509 to 0.2304) nmol
CSCC[C@H](NC(=O)[C@H](Cc1ccccc1)NC(=O)CNC(=O)[C@@H](C)NC(=O)[C@@H](N)Cc1ccc(O)cc1)C(=O)N1CCC[C@H]1C(=O)N[C@@H](CCC(N)=O)C(=O)N[C@@H](CCCNC(=N)N)C(=O)N[C@@H](Cc1ccccc1)C(N)=O [Compound 5] (H-Y[dA]GFMPQRF-NH2) | 0.2957 (0.2637 to 0.3338) nmol
CSCC[C@@H](NC(=O)[C@H](Cc1ccccc1)NC(=O)CNC(=O)[C@@H](C)NC(=O)[C@@H](N)Cc1ccc(O)cc1)C(=O)N1CCC[C@H]1C(=O)N[C@@H](CCC(N)=O)C(=O)N[C@@H](CCCNC(=N)N)C(=O)N[C@@H](Cc1ccccc1)C(N)=O [Compound 6, Tyr-D-Ala-Gly-Phe-D-Met-Pro-Gln-Arg-Phe-NH2] (H-Y[dA]GF[dM]PQRF-NH2) | 0.3986 (0.3716 to 0.4275) nmol
CC(C)C[C@@H](NC(=O)[C@H](Cc1ccccc1)NC(=O)CNC(=O)[C@@H](C)NC(=O)[C@@H](N)Cc1ccc(O)cc1)C(=O)N1CCC[C@H]1C(=O)N[C@@H](CCC(N)=O)C(=O)N[C@@H](CCCNC(=N)N)C(=O)N[C@@H](Cc1ccccc1)C(N)=O [Compound 7, Tyr-D-Ala-Gly-Phe-D-Leu-Pro-Gln-Arg-Phe-NH2] (H-Y[dA]GF[dL]PQRF-NH2) | 0.4367 (0.3865 to 0.4934) nmol
C[C@@H](NC(=O)[C@@H](N)Cc1ccc(O)cc1)C(=O)NCC(=O)N[C@@H](Cc1ccccc1)C(=O)N[C@H](C)C(=O)N1CCC[C@H]1C(=O)N[C@@H](CCC(N)=O)C(=O)N[C@@H](CCCNC(=N)N)C(=O)N[C@@H](Cc1ccccc1)C(N)=O [Compound 8, Tyr-D-Ala-Gly-Phe-D-Ala-Pro-Gln-Arg-Phe-NH2] (H-Y[dA]GF[dA]PQRF-NH2) | 0.3361 (0.2864 to 0.3944) nmol

Reference: patent US11167006B2 (Shanghai Tianci Life Science Development Co., Ltd., priority 2016, dated 2021)
